Measured values published in the CheMixHub viscosity set.
Values joined by “and” are separate entries in the source; they are usually repeats but may differ in a detail not shown here. Equal values may be shown once. ± gives the uncertainty stated by the source.

Test: xn = mol fraction of the nth substance listed

Compound: CCO + O
- viscosity (293.15 K, 100 kPa, x1 = 0.3): 2.81 ± 0.0084 mPa·s
- viscosity (293.15 K, 100 kPa, x1 = 0.4): 2.616 ± 0.0078 mPa·s
- viscosity (293.15 K, 101 kPa, x2 = 0.25): 2.385 ± 0.029 mPa·s
- viscosity (293.15 K, 101 kPa, x2 = 0.75): 2.114 ± 0.026 mPa·s
- viscosity (293.15 K, 101.33 kPa, x1 = 0.04164): 1.564 ± 0.016 mPa·s
- viscosity (293.15 K, 101.33 kPa, x1 = 0.2068): 2.942 ± 0.029 mPa·s
- viscosity (293.15 K, 101.33 kPa, x1 = 0.235): 2.947 ± 0.029 mPa·s
- viscosity (293.15 K, 101.33 kPa, x1 = 0.2499): 2.922 ± 0.029 mPa·s
- viscosity (293.15 K, 101.33 kPa, x1 = 0.3697): 2.694 ± 0.027 mPa·s
- viscosity (293.15 K, 101.33 kPa, x1 = 0.4771): 2.381 ± 0.024 mPa·s
- viscosity (293.15 K, 101.33 kPa, x1 = 0.61): 2.036 ± 0.02 mPa·s
- viscosity (293.15 K, 101.33 kPa, x1 = 0.7787): 1.643 ± 0.016 mPa·s
- viscosity (293.15 K, 101.33 kPa, x2 = 0.0102): 1.261 ± 0.013 mPa·s
- viscosity (298 K, 101 kPa, x1 = 0.09): 1.81 ± 0.02 mPa·s
- viscosity (298 K, 101 kPa, x1 = 0.1): 2.409 ± 0.027 mPa·s
- viscosity (298 K, 101 kPa, x1 = 0.4): 2.234 ± 0.025 mPa·s
- viscosity (298 K, 101 kPa, x1 = 0.5): 2.013 ± 0.023 mPa·s
- viscosity (298.15 K, 100 kPa, x1 = 0.2): 2.335 ± 0.095 mPa·s
- viscosity (298.15 K, 100 kPa, x1 = 0.4): 2.148 ± 0.088 mPa·s
- viscosity (298.15 K, 100 kPa, x1 = 0.78): 1.423 ± 0.058 mPa·s
- viscosity (298.15 K, 101 kPa, x1 = 0.0112): 0.991 ± 0.013 mPa·s
- viscosity (298.15 K, 101 kPa, x1 = 0.0129): 1.007 ± 0.013 mPa·s
- viscosity (298.15 K, 101 kPa, x1 = 0.0197): 1.072 ± 0.013 mPa·s
- viscosity (298.15 K, 101 kPa, x1 = 0.025): 1.127 ± 0.014 mPa·s
- viscosity (298.15 K, 101 kPa, x1 = 0.0289): 1.166 ± 0.014 mPa·s
- viscosity (298.15 K, 101 kPa, x1 = 0.0348): 1.225 ± 0.014 mPa·s
- viscosity (298.15 K, 101 kPa, x1 = 0.0439): 1.322 ± 0.015 mPa·s
- viscosity (298.15 K, 101 kPa, x1 = 0.0515): 1.405 ± 0.018 mPa·s
- viscosity (298.15 K, 101 kPa, x1 = 0.0677): 1.576 ± 0.017 mPa·s
- viscosity (298.15 K, 101 kPa, x1 = 0.1003): 1.889 ± 0.027 mPa·s
- viscosity (298.15 K, 101 kPa, x1 = 0.1025): 1.91 ± 0.019 mPa·s
- viscosity (298.15 K, 101 kPa, x1 = 0.1139): 2 ± 0.019 mPa·s
- viscosity (298.15 K, 101 kPa, x1 = 0.1302): 2.109 ± 0.019 mPa·s
- viscosity (298.15 K, 101 kPa, x1 = 0.14): 2.1 ± 0.02 mPa·s
- viscosity (298.15 K, 101 kPa, x1 = 0.1597): 2.247 ± 0.033 mPa·s
- viscosity (298.15 K, 101 kPa, x1 = 0.1837): 2.322 ± 0.021 mPa·s
- viscosity (298.15 K, 101 kPa, x1 = 0.28): 2.25 ± 0.02 mPa·s
- viscosity (298.15 K, 101 kPa, x1 = 0.3515): 2.248 ± 0.03 mPa·s
- viscosity (298.15 K, 101 kPa, x1 = 0.37): 2.14 ± 0.03 mPa·s
- viscosity (298.15 K, 101 kPa, x1 = 0.4801): 1.995 ± 0.025 mPa·s
- viscosity (298.15 K, 101 kPa, x1 = 0.613): 1.725 ± 0.023 mPa·s
- viscosity (298.15 K, 101 kPa, x1 = 0.6923): 1.58 ± 0.02 mPa·s
- viscosity (298.15 K, 101 kPa, x1 = 0.8006): 1.401 ± 0.019 mPa·s
- viscosity (298.15 K, 101 kPa, x1 = 0.8018): 1.399 ± 0.017 mPa·s
- viscosity (298.15 K, 101 kPa, x1 = 0.905): 1.239 ± 0.018 mPa·s
- viscosity (298.15 K, 101 kPa, x1 = 0.9518): 1.167 ± 0.017 mPa·s
- viscosity (298.15 K, 101 kPa, x2 = 0.25): 2.046 ± 0.025 mPa·s
- viscosity (298.15 K, 101 kPa, x2 = 0.5): 2.322 ± 0.029 mPa·s
- viscosity (298.15 K, 101 kPa, x2 = 0.75): 1.778 ± 0.022 mPa·s
- viscosity (298.15 K, 101 kPa, x2 = 0.9584): 1.108 ± 0.0087 mPa·s
- viscosity (298.15 K, 101.33 kPa, x1 = 0.0144): 0.96 ± 0.008 mPa·s
- viscosity (298.15 K, 101.33 kPa, x1 = 0.0205): 1.013 ± 0.008 mPa·s
- viscosity (298.15 K, 101.33 kPa, x1 = 0.1135): 1.851 ± 0.014 mPa·s
- viscosity (298.15 K, 101.33 kPa, x1 = 0.1414): 2.129 ± 0.016 mPa·s
- viscosity (298.15 K, 101.33 kPa, x1 = 0.1893): 2.29 ± 0.018 mPa·s
- viscosity (298.15 K, 101.33 kPa, x1 = 0.2151): 2.327 ± 0.018 mPa·s
- viscosity (298.15 K, 101.33 kPa, x1 = 0.3285): 2.273 ± 0.017 mPa·s
- viscosity (298.15 K, 101.33 kPa, x1 = 0.3308): 2.273 ± 0.017 mPa·s
- viscosity (298.15 K, 101.33 kPa, x1 = 0.3461): 2.247 ± 0.017 mPa·s
- viscosity (298.15 K, 101.33 kPa, x1 = 0.3745): 2.226 ± 0.017 mPa·s
- viscosity (298.15 K, 101.33 kPa, x1 = 0.3801): 2.212 ± 0.017 mPa·s
- viscosity (298.15 K, 101.33 kPa, x1 = 0.4246): 2.104 ± 0.016 mPa·s
- viscosity (298.15 K, 101.33 kPa, x1 = 0.4299): 2.112 ± 0.016 mPa·s
- viscosity (298.15 K, 101.33 kPa, x1 = 0.4836): 1.995 ± 0.015 mPa·s
- viscosity (298.2 K, 100 kPa, x2 = 0.387): 1.854 ± 0.021 mPa·s
- viscosity (298.2 K, 100 kPa, x2 = 0.399): 1.676 ± 0.047 mPa·s
- viscosity (298.2 K, 100 kPa, x2 = 0.655): 2.18 ± 0.052 mPa·s
- viscosity (298.2 K, 100 kPa, x2 = 0.674): 2.18 ± 0.032 mPa·s
- viscosity (300.65 K, 101 kPa, x1 = 0.86): 1.1 ± 0.02 mPa·s
- viscosity (303.15 K, 101 kPa, x2 = 0.25): 1.767 ± 0.022 mPa·s
- viscosity (303.15 K, 101 kPa, x2 = 0.5): 1.961 ± 0.024 mPa·s
- viscosity (303.15 K, 101.33 kPa, x1 = 0.04164): 1.179 ± 0.012 mPa·s
- viscosity (303.15 K, 101.33 kPa, x1 = 0.08905): 1.574 ± 0.016 mPa·s
- viscosity (303.15 K, 101.33 kPa, x1 = 0.1435): 1.9 ± 0.019 mPa·s
- viscosity (303.15 K, 101.33 kPa, x1 = 0.2499): 2.061 ± 0.021 mPa·s
- viscosity (303.15 K, 101.33 kPa, x1 = 0.2652): 2.056 ± 0.021 mPa·s
- viscosity (303.15 K, 101.33 kPa, x1 = 0.2811): 2.068 ± 0.021 mPa·s
- viscosity (303.15 K, 101.33 kPa, x1 = 0.4771): 1.79 ± 0.018 mPa·s
- viscosity (303.15 K, 101.33 kPa, x1 = 0.61): 1.567 ± 0.016 mPa·s
- viscosity (303.15 K, 101.33 kPa, x1 = 0.7787): 1.311 ± 0.013 mPa·s
- viscosity (303.15 K, 101.33 kPa, x2 = 0.0102): 1.035 ± 0.01 mPa·s
- viscosity (308 K, 101 kPa, x1 = 0.09): 1.343 ± 0.035 mPa·s
- viscosity (308.15 K, 101 kPa, x2 = 0.25): 1.54 ± 0.019 mPa·s
- viscosity (308.15 K, 101 kPa, x2 = 0.5): 1.676 ± 0.021 mPa·s
- viscosity (308.15 K, 101 kPa, x2 = 0.9584): 0.939 ± 0.0076 mPa·s
- viscosity (313.15 K, 101 kPa, x2 = 0.25): 1.349 ± 0.017 mPa·s
- viscosity (313.15 K, 101 kPa, x2 = 0.5): 1.448 ± 0.018 mPa·s
- viscosity (313.15 K, 101.33 kPa, x1 = 0.04164): 0.909 ± 0.0091 mPa·s
- viscosity (313.15 K, 101.33 kPa, x1 = 0.1435): 1.383 ± 0.014 mPa·s
- viscosity (313.15 K, 101.33 kPa, x1 = 0.2068): 1.494 ± 0.015 mPa·s
- viscosity (313.15 K, 101.33 kPa, x1 = 0.2499): 1.509 ± 0.015 mPa·s
- viscosity (313.15 K, 101.33 kPa, x1 = 0.2652): 1.514 ± 0.015 mPa·s
- viscosity (313.15 K, 101.33 kPa, x1 = 0.2811): 1.529 ± 0.015 mPa·s
- viscosity (313.15 K, 101.33 kPa, x1 = 0.61): 1.223 ± 0.012 mPa·s
- viscosity (313.15 K, 101.33 kPa, x1 = 0.7787): 1.05 ± 0.01 mPa·s
- viscosity (317.15 K, 101 kPa, x1 = 0.86): 0.779 ± 0.017 mPa·s
- viscosity (318.15 K, 101 kPa, x2 = 0.25): 1.185 ± 0.015 mPa·s
- viscosity (318.15 K, 101 kPa, x2 = 0.5): 1.255 ± 0.015 mPa·s
- viscosity (318.15 K, 101 kPa, x2 = 0.9413): 0.8181 ± 0.0067 mPa·s
- viscosity (323.15 K, 100 kPa, x1 = 0.2): 1.113 ± 0.0033 mPa·s and 1.08 ± 0.045 mPa·s
- viscosity (323.15 K, 100 kPa, x1 = 0.3): 1.108 ± 0.046 mPa·s
- viscosity (323.15 K, 100 kPa, x1 = 0.4): 1.113 ± 0.0033 mPa·s and 1.072 ± 0.044 mPa·s
- viscosity (323.15 K, 100 kPa, x1 = 0.6): 0.9548 ± 0.0029 mPa·s and 0.9408 ± 0.039 mPa·s
- viscosity (323.15 K, 100 kPa, x1 = 0.8): 0.8101 ± 0.033 mPa·s
- viscosity (323.15 K, 101 kPa, x2 = 0.25): 1.055 ± 0.013 mPa·s
- viscosity (323.15 K, 101 kPa, x2 = 0.5): 1.102 ± 0.014 mPa·s
- viscosity (323.15 K, 101 kPa, x2 = 0.75): 0.89 ± 0.011 mPa·s
- viscosity (323.15 K, 101.33 kPa, x1 = 0.04164): 0.747 ± 0.0075 mPa·s
- viscosity (323.15 K, 101.33 kPa, x1 = 0.08905): 0.924 ± 0.0092 mPa·s
- viscosity (323.15 K, 101.33 kPa, x1 = 0.1435): 1.061 ± 0.011 mPa·s
- viscosity (323.15 K, 101.33 kPa, x1 = 0.2068): 1.152 ± 0.012 mPa·s
- viscosity (323.15 K, 101.33 kPa, x1 = 0.235): 1.157 ± 0.012 mPa·s
- viscosity (323.15 K, 101.33 kPa, x1 = 0.2499): 1.162 ± 0.012 mPa·s
- viscosity (323.15 K, 101.33 kPa, x1 = 0.2652): 1.177 ± 0.012 mPa·s
- viscosity (323.15 K, 101.33 kPa, x1 = 0.2811): 1.18 ± 0.012 mPa·s
- viscosity (323.15 K, 101.33 kPa, x1 = 0.3697): 1.162 ± 0.012 mPa·s
- viscosity (323.15 K, 101.33 kPa, x1 = 0.4771): 1.089 ± 0.011 mPa·s
- viscosity (323.15 K, 101.33 kPa, x1 = 0.61): 0.981 ± 0.0098 mPa·s
- viscosity (323.15 K, 101.33 kPa, x1 = 0.7787): 0.866 ± 0.0087 mPa·s
- viscosity (323.15 K, 101.33 kPa, x2 = 0.0102): 0.729 ± 0.0073 mPa·s
